Assays:
Assay type in all cases: cell-based
[1] = test system: C. fascicularis suspension culture; assay: Differential induction of EGCG in Crassula fascicularis suspension culture (HPLC); settings: B49 medium, treated on day 7 following subculture
Experimental: Differential induction of catechins in the C. fascicularis suspension culture was performed in 500 mL conical flasks containing 190 mL of either growth medium B105 (modified Gamborg's B5 medium containing 2,4-D (1 mg/L), kinetin (0.1 mg/L), coconut water (100 mL/L), glutamine (10 mM), and 3% sucrose) or a secondary metabolite production medium B49 (Gamborg's B5, 5% sucrose, no hormones), inoculated with 70 mL of 14 day old suspension culture. Cultures were grown for 14 days before harvest and processing. Further cultures grown on production medium B49 were treated using one of each of the following protocols:
(4) A 40 mL aliquot of a day 0 suspension growing on B105 medium was transferred to a 100 mL flask. On day 3, a sterile solution of 5-azacytidine (5-AC) in water was added for a final concentration of 3×10^−5 M, and the resultant mixture was incubated for 11 days. At this point the 40 mL 5-AC-treated culture was subcultured twice before inoculating 190 mL B49 production medium in a 500 mL flask with 70 mL of day 14 suspension. The culture was then treated further according to protocol (2). […]
Lyophilized biomass from 100 mL plant cell culture was extracted three times with 10 mL of boiling aqueous 0.2 M NaH2PO4 solution (total 30 mL). The combined, cooled, extracts were extracted with EtOAc (2×30 mL). The combined EtOAc extracts were then dried under a stream of nitrogen. The samples were dissolved in 50% aqueous acetonitrile at a concentration of 1.0 mg/mL; a 0.1 mL aliquot was transferred into a 0.25 mL glass insert to a 2 mL HPLC vial. The extraction procedure is scalable according to the initial volume of the plant-cell culture used to generate the biomass.
HPLC analyses of compounds in plant cell culture extracts were performed in two systems. System 1 (S1) utilized a Rainin Dynamax SD-200 pumping system, a Varian Dynamax PDA-2 diode array detector, with a Waters XTerra RP 18 (5 μm, 3.0×150 mm) column. The mobile phase was composed from 0.1% acetic acid in H2O (solvent A) and 0.1% acetic acid in acetonitrile (solvent B), at a flow rate of 0.75 mL/min: after maintaining initial conditions (A:B, 95:5) for one minute post-injection, gradient elution was accomplished in a linear fashion over 30 min (to A:B, 40:60). A total of 10 μL of each sample was injected onto the column and eluates were analyzed at a wavelength of 275 nm. System 2 (S2) utilized API-electrospray-LC-MS: a Hewlett Packard series HP1100 with a Waters Xterra RP18 (3.5 μm, 2.1×100 mm) column was used as the inlet for a Micromass Platform-LC, in the positive-ion mode. […] Compounds of interest were detected at 254 nm and as single-charged species via selected-ion monitoring in the mass spectrometer. […]

[2] = test system: C. barkleyi suspension culture; assay: Differential induction of catechin accumulation in Crassula barkleyi suspension culture; settings: B49 medium, treated seven days after inoculation, sampled for 17 days
Experimental: Differential induction of catechin derivatives in the C. barkleyi suspension culture was performed in 250 mL conical flasks containing 100 mL of a secondary metabolite production medium B49 (Gamborg's B5, with 5% sucrose, and no hormones), inoculated with 16 mL of 14 day old suspension culture. The cultures were incubated under low light conditions (approximately 30 lux) at 25° C. for seven days after inoculation. Cultures were then treated using one of each of the following protocols (untreated cultures were also maintained as controls):
(2) Autoclaved aqueous 2,4-D (1 mg/L final concentration) was added;
(4) Filter-sterilized aqueous DL-phenylalanine (200 mg/L) was added;
(6) Filter-sterilized aqueous zeatin (10 μM) was added;
(7) Filter-sterilized aqueous 1-aminocyclopropane-1-carboxylic acid (10 mg/L final concentration) was added;
(8) Filter-sterilized 24-epibrassinolide (1 mg/L final concentration) was added;
(9) Incubation at a temperature of 16° C.; or (10) High light regime (approximately 160 lux).
Ten milliliter culture samples were taken at regular intervals for 17 days following the day of subculture to B49 medium. All culture samples were centrifuged for five minutes at 4000 rpm, and the cell residue was freeze-dried. Extraction, sample preparation, and HPLC analysis were performed as described in Example 1.

[3] = test system: C. acinaciformis suspension culture; assay: Effect of methyl jasmonate on catechin accumulation in Crassula acinaciformis suspension culture; settings: M33 medium, added on day 7, by day 16
Experimental: Catechin derivative profiles in the C. acinaciformis suspension culture were obtained from incubations in 250 mL conical flasks containing either 100 mL of M62 growth medium or 100 mL of a secondary metabolite production medium M33 (Murashige and Skoog (1962); modified to contain 5% sucrose and no hormones) inoculated with 40 mL of 21 day old suspension culture. The cultures were incubated under low light conditions (approximately 30 lux) at 25° C. […] 10 mL culture samples were taken at regular intervals for 16 days following the day of subculture to M33 medium. All culture samples were centrifuged for five minutes at 4000 rpm, and the cell residue was freeze-dried. Extraction, sample preparation, and HPLC analysis were performed as described in Example 1.

[4] = test system: S. tectorum suspension culture; assay: Catechin profiling in Sempervivum tectorum suspension culture; settings: B49 medium, added on day 7
Experimental: Catechin derivative profiles in the S. tectorum suspension culture were obtained from incubations in 250 mL conical flasks containing either 100 mL of B88 growth medium or 100 mL of a secondary metabolite production medium B49 (Gamborg's B5 modified to contain 5% sucrose and no hormones) inoculated with 40 mL of 21 day old suspension culture. The cultures were incubated under low light conditions (approximately 30 lux) at 25° C.
Ten milliliters of culture samples were taken at regular intervals for 16 days following the day of subculture to B88 or B49 medium. All culture samples were centrifuged for five minutes at 4000 rpm and the supernatant liquid was removed and frozen. The cell residue was freeze-dried. Extraction, sample preparation, and HPLC analysis were performed as described in Example 1.

terpene cyclases = assay: PCR with degenerate terpene cyclase primers in Ajuga reptans cultures; settings: 24 hour post-treatment cultures

Compound: CC/C=C\CC1C(=O)CCC1CC(=O)OC (stereo not drawn) [methyl jasmonate]
- EGCG (mg/gdwt) two days after treatment [1]: 67 mg/gdwt
- catechin biosynthesis and EGCG accumulation [2]: induced catechin biosynthesis and EGCG accumulation
- catechin level [3]: approximate doubling of catechin level
- catechin level [4]: no further increase in catechin level
- PCR band of first degenerate primer combination (terpene cyclases): induced
- PCR band of second degenerate primer combination (candidate cyclase for compound 6) (terpene cyclases): not
